{"source": "paper PMC9963887", "about": "“Towards Radiolabeled EGFR-Specific Peptides: Alternatives to GE11” (Pharmaceuticals, 2023)", "test_system": "EGFR-positive A431 cells", "assay": "cell uptake / internalization studies on A431 cells", "format": "cell-based, human", "conditions": "1 h incubation", "method": "The cellular uptake was differentiated by membrane-bound and internalized activity. In these experiments, no EGFR-specific interaction of any of the radiolabeled agents [^68Ga]Ga-1–[^68Ga]Ga-11 was observed (Figure 5).\nInternalization studies of [^68Ga]Ga-1–[^68Ga]Ga-11 on A431 cells. For this purpose, the A431 cells (10^6 per well) were seeded into 24-well cell culture multiwell plates (cellstar) and incubated for 2 days at 37 °C in a humidified CO2 (5%) atmosphere. Directly before the experiment, each well was washed twice with fresh internalization medium (PBS/DMEM, high glucose, 1/99, v/v), followed by the addition of internalization medium to a final volume of 1.35 mL per well. […] Afterwards, the medium was separated from the cells and each well was washed twice with 1 mL of ice-cold internalization medium, the washing solutions were added to the collected internalization medium and measured in a γ-counter (these combined solutions contain the unbound fraction). To determine the surface-bound fraction, each well was further incubated twice for 5 min with ice-cold glycine-buffer (pH 2.8, 0.05 M, 1 mL) and the supernatants were collected and measured. The internalized fraction was determined by lysing the cells twice for 5 min with sodium hydroxide solution (2 M, 1 mL), collection and measurement of the combined solutions. […]"}
{"substance": "[^125I]I-hEGF: ^125I-labeled hEGF from PerkinElmer, reference compound in cell uptake and competitor in displacement assays", "values": [{"measurement": "activity, internalized + bound to membrane, blocked (overall cellular uptake under blocking)", "setting": "blocking with 100-fold excess hEGF", "value": 1.9, "unit": "%"}, {"measurement": "activity, internalized + bound to membrane, unblocked (overall cellular uptake)", "setting": "non-blocking conditions", "value": 33.6, "unit": "%"}]}
